Test results published in paper PMC9884089 (Journal of Medicinal Chemistry, 2023).
Read-outs that look alike come from different tables or passages of the source.

Key:
PARP7 = settings: Figure 1 ref 40; cited from earlier work
PARP10 [1] = molecular target: T1, PARP10 (Homo sapiens, UniProt Q53GL7); test: Cellular MARylation assay (immunoblot of PARP10 auto-MARylation); type: cell-based; settings: 10 μM, 16 h, HeLa cells
T1 construct: made in house
T1 sequence (Q53GL7 1-1025): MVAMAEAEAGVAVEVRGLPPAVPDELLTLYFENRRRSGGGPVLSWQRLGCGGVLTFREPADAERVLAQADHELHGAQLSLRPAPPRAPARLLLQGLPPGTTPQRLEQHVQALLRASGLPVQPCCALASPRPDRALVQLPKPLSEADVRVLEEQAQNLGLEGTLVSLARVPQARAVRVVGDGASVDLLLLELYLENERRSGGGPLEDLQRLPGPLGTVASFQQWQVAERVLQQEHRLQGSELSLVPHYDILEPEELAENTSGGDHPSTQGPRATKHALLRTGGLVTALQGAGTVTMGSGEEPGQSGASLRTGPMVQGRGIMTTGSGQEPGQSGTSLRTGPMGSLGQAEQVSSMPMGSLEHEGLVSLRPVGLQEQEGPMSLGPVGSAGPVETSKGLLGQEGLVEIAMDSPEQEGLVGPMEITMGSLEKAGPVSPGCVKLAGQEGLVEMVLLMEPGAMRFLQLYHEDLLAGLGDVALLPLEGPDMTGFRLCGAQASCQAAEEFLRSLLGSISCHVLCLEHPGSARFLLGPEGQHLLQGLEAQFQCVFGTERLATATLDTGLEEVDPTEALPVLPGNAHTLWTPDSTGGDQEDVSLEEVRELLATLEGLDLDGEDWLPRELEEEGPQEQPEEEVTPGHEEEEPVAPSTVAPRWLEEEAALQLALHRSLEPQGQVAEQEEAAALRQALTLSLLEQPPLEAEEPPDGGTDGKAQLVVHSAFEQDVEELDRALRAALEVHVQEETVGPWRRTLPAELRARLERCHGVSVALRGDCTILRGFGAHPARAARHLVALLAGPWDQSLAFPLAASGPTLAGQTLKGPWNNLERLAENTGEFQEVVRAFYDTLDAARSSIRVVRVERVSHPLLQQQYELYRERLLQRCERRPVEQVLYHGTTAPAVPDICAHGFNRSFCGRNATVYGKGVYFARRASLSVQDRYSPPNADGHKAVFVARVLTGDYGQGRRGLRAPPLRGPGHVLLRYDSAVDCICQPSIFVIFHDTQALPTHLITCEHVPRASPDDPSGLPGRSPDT
Method: Cells were lysed in RIPA lysis buffer [10 mM Tris pH 7.4; 150 mM NaCl; 1% NP-40; 1% desoxycholate; 0,1% SDS; protease inhibitor cocktail (Sigma-Aldrich) and 10 μM olaparib (Selleck Chemicals)], and lysates were analyzed via SDS-PAGE and immunoblotting using specific anti-PARP10 (Eurogentec),[93] anti-MAR/PAR (Cell Signaling, E6F6A, anti-poly/Mono-ADP-ribose antibody), and anti-α-tubulin (B 5-1-2, Sigma-Aldrich) antibodies.

PARP15 = molecular target: T2, PARP15 (Homo sapiens, UniProt Q460N3); test: biochemical; type: biochemical
T2 construct: made in house
T2 sequence (Q460N3 1-678): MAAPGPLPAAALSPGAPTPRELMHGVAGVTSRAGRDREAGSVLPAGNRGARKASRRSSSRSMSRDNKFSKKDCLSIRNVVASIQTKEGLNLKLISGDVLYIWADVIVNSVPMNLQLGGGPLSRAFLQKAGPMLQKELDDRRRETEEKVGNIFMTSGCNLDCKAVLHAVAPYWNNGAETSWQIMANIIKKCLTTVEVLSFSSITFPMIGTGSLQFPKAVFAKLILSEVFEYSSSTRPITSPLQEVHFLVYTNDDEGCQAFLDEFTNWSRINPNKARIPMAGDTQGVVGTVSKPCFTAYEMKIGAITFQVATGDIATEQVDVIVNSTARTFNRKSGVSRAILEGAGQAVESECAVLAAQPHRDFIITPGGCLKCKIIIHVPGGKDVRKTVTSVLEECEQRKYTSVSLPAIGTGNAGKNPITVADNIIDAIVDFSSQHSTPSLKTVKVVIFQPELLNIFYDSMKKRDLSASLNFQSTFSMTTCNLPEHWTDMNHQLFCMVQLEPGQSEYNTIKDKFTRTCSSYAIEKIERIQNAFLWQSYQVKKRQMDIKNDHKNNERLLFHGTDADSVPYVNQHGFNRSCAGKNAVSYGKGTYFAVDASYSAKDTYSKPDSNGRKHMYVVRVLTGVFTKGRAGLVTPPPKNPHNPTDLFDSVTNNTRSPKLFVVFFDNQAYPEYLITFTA

TNKS2 [2] = molecular target: T3, TNKS2 (Homo sapiens, UniProt Q9H2K2); test: biochemical; settings: read-out: TNKS2 IC50; > = less than 50% inhibition at highest concentration
T3 sequence (Q9H2K2 1-1166): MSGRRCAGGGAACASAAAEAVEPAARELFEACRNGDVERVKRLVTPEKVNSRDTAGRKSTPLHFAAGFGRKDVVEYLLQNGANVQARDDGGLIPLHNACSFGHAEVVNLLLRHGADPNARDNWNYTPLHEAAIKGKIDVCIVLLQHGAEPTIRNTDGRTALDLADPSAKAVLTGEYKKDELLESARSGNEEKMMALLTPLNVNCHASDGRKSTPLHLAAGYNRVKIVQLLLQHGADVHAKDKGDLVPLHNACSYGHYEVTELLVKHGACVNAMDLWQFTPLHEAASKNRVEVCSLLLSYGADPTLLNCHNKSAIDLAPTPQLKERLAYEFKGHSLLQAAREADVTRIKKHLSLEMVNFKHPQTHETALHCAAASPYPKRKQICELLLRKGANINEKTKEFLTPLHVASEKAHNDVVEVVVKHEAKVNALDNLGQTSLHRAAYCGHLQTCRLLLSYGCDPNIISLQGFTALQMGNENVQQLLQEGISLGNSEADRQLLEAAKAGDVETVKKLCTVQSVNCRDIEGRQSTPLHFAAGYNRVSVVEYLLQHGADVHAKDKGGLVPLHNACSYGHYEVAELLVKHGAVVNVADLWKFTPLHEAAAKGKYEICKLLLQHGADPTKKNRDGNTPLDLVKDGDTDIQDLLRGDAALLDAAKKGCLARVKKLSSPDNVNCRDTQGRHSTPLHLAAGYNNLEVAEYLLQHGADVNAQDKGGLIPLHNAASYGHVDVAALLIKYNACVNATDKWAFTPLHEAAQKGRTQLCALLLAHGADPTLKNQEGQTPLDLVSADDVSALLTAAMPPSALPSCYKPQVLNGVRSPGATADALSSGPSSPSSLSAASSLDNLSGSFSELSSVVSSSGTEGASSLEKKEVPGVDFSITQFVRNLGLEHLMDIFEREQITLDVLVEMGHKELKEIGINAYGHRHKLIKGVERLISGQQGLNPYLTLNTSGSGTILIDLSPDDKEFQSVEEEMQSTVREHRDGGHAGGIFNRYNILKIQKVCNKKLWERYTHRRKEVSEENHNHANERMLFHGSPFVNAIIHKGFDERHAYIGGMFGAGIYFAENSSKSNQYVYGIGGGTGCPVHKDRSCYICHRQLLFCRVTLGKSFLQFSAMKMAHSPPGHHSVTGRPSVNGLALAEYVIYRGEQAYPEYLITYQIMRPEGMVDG
Method: The proteins used in Tables 1–3 were produced as described earlier. Dockerin constructs to allow enhanced activity assays for mono-ARTs (Table 4) were produced in Escherichia coli with an N-terminal maltose binding protein (MBP) and a C-terminal dockerin domain from Hungateiclostridium thermocellum Cel48s as described recently.[47]
Inhibition experiments were performed using a homogenous assay measuring NAD+ consumption.[80]−[82] Reactions were carried out in quadruplicate, and IC50 curves were fitted using sigmoidal dose response curve (four variables) in GraphPad Prism version 8.02. […] Assay conditions for PARP2, TNKS2, PARP10, and PARP15 (Tables 1–3) were recently reported.[44] The conditions for the proximity-enhanced mono-ART assays (Table 4) were also reported recently.[47] PARP6 (400 nM) inhibition was measured using the standard buffer (50 mM sodium phosphate pH 7.0) for the enhanced activity assay using 500 nM NAD^+ and 18 h incubation in r.t..

PARP10 [3] = molecular target: T1, PARP10; test: biochemical; type: biochemical
PARP2 = molecular target: T4, PARP2 (Homo sapiens, UniProt Q9UGN5); test: biochemical; type: biochemical; settings: > = less than 50% inhibition at highest concentration; ≫ = no inhibition; read-out: PARP2 IC50
T4 construct: made in house

TNKS2 [4] = settings: Figure 1 ref 19; cited from earlier work
HEK293T cells = test: Cell viability assay (colorimetric WST-1); type: cell-based, human; settings: HEK293T, 100, 50 and 10 μM, 24 h
Method: Cell viability was assessed by colorimetric WST-1 (Cellpro-Roche, Sigma-Aldrich) assay following manufacturer’s instructions. […] Also, DMSO and 10 mM hydroxyurea (Sigma) were used as internal controls for induced cell toxicity. […] Thereafter, WST-1 reagent was pipetted followed by 2 h incubation and absorbance measuring by a Tecan Infinite M1000 or a Tecan Spark (Tecan) plate reader. The assay was performed in triplicate and repeated at least three times. Data were normalized to DMSO control.

TNKS1/2 = settings: Figure 1; cited from earlier work
PARP10 [5] = settings: Figure 1 ref 35; cited from earlier work
PARP11 = settings: Figure 1 ref 42; cited from earlier work
[6] = standard assay (Tables 1-3), * value limited by the protein concentration used, > less than 50% inhibition, ≫ no inhibition at the concentration, read-out: PARP15 IC50

T4 sequence (Q9UGN5 whole entry): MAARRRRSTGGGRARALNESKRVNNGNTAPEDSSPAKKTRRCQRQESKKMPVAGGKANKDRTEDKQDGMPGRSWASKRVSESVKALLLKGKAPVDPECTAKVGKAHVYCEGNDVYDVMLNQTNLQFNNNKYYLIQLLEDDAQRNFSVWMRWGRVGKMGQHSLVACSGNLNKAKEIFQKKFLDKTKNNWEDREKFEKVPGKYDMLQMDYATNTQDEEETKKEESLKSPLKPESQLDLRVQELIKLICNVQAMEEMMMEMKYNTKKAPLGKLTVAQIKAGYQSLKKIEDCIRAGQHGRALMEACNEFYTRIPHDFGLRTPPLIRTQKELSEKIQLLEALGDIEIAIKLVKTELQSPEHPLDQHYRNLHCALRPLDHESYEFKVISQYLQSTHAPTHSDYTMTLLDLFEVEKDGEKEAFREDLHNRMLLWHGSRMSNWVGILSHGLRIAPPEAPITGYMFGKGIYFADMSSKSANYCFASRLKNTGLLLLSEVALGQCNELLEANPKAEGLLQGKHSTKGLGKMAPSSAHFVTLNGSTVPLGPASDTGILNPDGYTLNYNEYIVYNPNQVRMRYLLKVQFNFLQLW

NC(=O)c1ccc(Oc2ccc(C(N)=O)cc2)cc1 [OUL35, reference compound]
inhibition of auto-MARylation of overexpressed PARP10 in cells (PARP10 [1]): did not observe a MAR-signal

c1ccc2c(c1)sc1nncn12 [Compound 2]
IC50 (PARP15; [6]): > 10 µM | IC50 (TNKS2 [2]): 2.5 µM | IC50 (PARP10 [3]; standard assay (Tables 1-3), * value limited by the protein concentration used, > less than 50% inhibition, ≫ no inhibition at the concentration, read-out: PARP10 IC50): > 10 µM | IC50 (PARP2): 5.3 µM

CCOc1ccc(-c2nnc([C@H]3C[C@H](NC(=O)c4cccc5c4NCCN5)C3)n2-c2ccccc2F)nc1 [OM-153]
IC50 (TNKS2 [4]): 0.002 µM

Oc1ccc(O)c2c1sc1nncn12 [Compound 18, [1,2,4]Triazolo[3,4-b][1,3]benzothiazol-5,8-diol]
cell toxicity (WST-1) (HEK293T cells): toxic in a dose-dependent manner | IC50 (TNKS2 [2]): 3.1 µM | IC50 (PARP2): 0.24 µM

COc1ccc(OC)c2c1sc1nnc(SC)n12 [Compound 28]
IC50 (PARP15): > 10 µM | IC50 (PARP10 [3]): > 10 µM

O=c1[nH]nc2c3c(cccc13)N=C(CN1Cc3ccccc3C1)N2 [E7449]
IC50 (TNKS1/2): 0.05 µM

NC(=O)c1ccc(OCC2CCC2)cc1 [OUL238]
IC50 (PARP10 [5]): 0.29 µM

CC#Cc1ccc2c(=O)[nH]c(CSc3ncccn3)nc2c1C [ITK7]
IC50 (PARP11): 0.014 µM

CC(C)c1ccc2c(c1)sc1nncn12 [Compound 6, 7-Isopropyl[1,2,4]triazolo[3,4-b][1,3]benzothiazole]
cell toxicity (WST-1) (HEK293T cells): toxic in a dose-dependent manner | IC50 (TNKS2 [2]): 9.5 µM | IC50 (PARP2): 4.5 µM

COc1ccc(OC)c2c1sc1nnc(NC(=O)c3ccc(Cl)cc3)n12 [Compound 29]
IC50 (PARP15; [6]): 7.9 µM | IC50 (PARP10 [3]): > 10 µM
